Results from PubChem BioAssay (NCI).
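Growth conditions: 96-well plates. Treatment: test compound, 48 hours, 5 concentrations. Analysis: linear interpolation between bracketing concentrations; unreached endpoints set to highest concentration. GI50: concentration for 50% inhibition of growth. TGI marks complete inhibition of growth.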

Experiments:
Assay in all cases: NCI tumour cell line growth inhibition, 48 h
NCI-H23 lung = system: NCI-H23 lung
MDA-N = system: MDA-N
MDA-MB-231 breast = system: MDA-MB-231 breast
SF-268 CNS = system: SF-268 CNS
NCI-H522 lung = system: NCI-H522 lung
SW-620 colon = system: SW-620 colon
NCI/ADR-RES ovarian = system: NCI/ADR-RES ovarian
HCT-116 colon = system: HCT-116 colon
HL-60(TB) leukemia = system: HL-60(TB) leukemia
HOP-62 NSCLC = system: HOP-62 NSCLC
OVCAR-3 ovarian = system: OVCAR-3 ovarian
SR leukemia = system: SR leukemia

Row | SMILES | GI50 (NCI-H23 lung) | TGI (NCI-H23 lung) | TGI (MDA-N) | TGI (MDA-MB-231 breast) | TGI (SF-268 CNS) | TGI (NCI-H522 lung) | GI50 (SW-620 colon) | TGI (SW-620 colon) | TGI (NCI/ADR-RES ovarian) | TGI (HCT-116 colon) | GI50 (HL-60(TB) leukemia) | TGI (HL-60(TB) leukemia) | TGI (HOP-62 NSCLC) | GI50 (OVCAR-3 ovarian) | TGI (OVCAR-3 ovarian) | TGI (SR leukemia)
1 | Cc1ccc2c(=O)cc(-c3sc4ccccc4c3C)[nH]c2n1 | 19.7 µM | 48.1 µM | 45 µM | > 100 µM | 69.7 µM | 42.3 µM | 19.8 µM | 65.8 µM | 47.6 µM | 55.6 µM | 18.5 µM | 42.9 µM | 75.4 µM | 19.7 µM | 50.1 µM | 
2 | N#Cc1nc(COCCOCc2ccc(F)cc2)oc1N |  | > 100 µM |  | > 100 µM | > 100 µM | > 100 µM |  | > 100 µM | > 100 µM | > 100 µM |  | > 100 µM | > 100 µM |  | > 100 µM | > 100 µM
3 | FC1=C2CCCCCC2SC1(F)F (configuration not stated) |  | > 100 µM | > 100 µM | > 100 µM | > 100 µM | 29.2 µM |  | 28.9 µM | > 100 µM | > 100 µM |  | 33.9 µM |  |  | > 100 µM | 53.6 µM
4 | Cc1ccc(S(=O)(=O)c2c(N)n(CCN(C)C)c3nc4ccccc4nc23)cc1 |  | > 100 µM |  |  | > 100 µM | 58.7 µM |  |  |  | > 100 µM |  | > 100 µM |  |  | > 100 µM | 
5 | N#CCCN(CCN(CCC#N)C(=O)Nc1ccccc1)C(=O)Nc1ccccc1 |  | > 100 µM | > 100 µM | > 100 µM | 87.9 µM | 98.4 µM |  | > 100 µM | > 100 µM | > 100 µM |  | > 100 µM | 55 µM |  |  | > 100 µM
6 | CC1(C)O[C@@H](CBr)C[C@H](C[C@H]2C[C@@H](O)C[C@@H](CCOCc3ccccc3)O2)O1 |  | 36.7 µM |  | > 100 µM | 39.2 µM | 35.4 µM |  | > 100 µM | 41.1 µM | 45.4 µM |  |  | 42.8 µM |  | 39.8 µM | > 100 µM
7 | Cc1ccccc1N=NC(C(=O)c1ccccc1)C(=O)c1ccccc1 |  | 55.2 µM |  |  | > 100 µM | 39 µM |  | > 100 µM |  | 54.4 µM |  | 37.9 µM | 70.6 µM |  | > 100 µM | 
8 | Cc1cc(Cl)ccc1C1OC(=O)c2c1ccc1ccccc21 (configuration not stated) |  | > 100 µM |  |  | > 100 µM | > 100 µM |  | > 100 µM |  | > 100 µM |  | > 100 µM | > 100 µM |  | > 100 µM | 
9 | CC#CC(O)(C(=O)OC1CC2CCC(C1)N2C)C1CCCC1 (configuration not stated) |  | > 100 µM | > 100 µM | > 100 µM | > 100 µM |  |  | > 100 µM | > 100 µM | > 100 µM |  | > 100 µM | > 100 µM |  | > 100 µM | > 100 µM
10 | OC(C/C=N/Nc1ccccc1)(C(F)(F)Cl)C(F)(F)Cl |  | > 10 µM | > 10 µM | > 10 µM | > 10 µM | > 10 µM |  | > 10 µM | > 10 µM | > 10 µM |  | > 10 µM | > 10 µM |  | > 10 µM | 
11 | Cc1nc2c(=O)n3c4c(cccc4c2o1)CCC3 |  | > 100 µM | > 100 µM | > 100 µM | > 100 µM |  |  | > 100 µM | > 100 µM | > 100 µM |  | > 100 µM | > 100 µM |  | > 100 µM | 
12 | CN(C)Cc1cc(C(C)(C)C)cc(C2CCCCC2)c1O |  | 72.2 µM |  | 26.7 µM | 32.5 µM | 37.2 µM |  | 30.2 µM | 44.4 µM | > 100 µM |  | 33.9 µM | 40 µM |  | 28.3 µM | 25.6 µM
13 | COc1ccc(N=[N+]([O-])c2ccc(OC)cc2)cc1 |  | > 100 µM | > 100 µM | > 100 µM | > 100 µM | > 100 µM |  |  | > 100 µM | > 100 µM |  |  | > 100 µM |  | > 100 µM | 
14 | Cc1cc(N(CCC#N)CCC#N)ccc1C=Nc1ccc(C(=O)NN2C(=O)/C(=C/c3ccc(N(CCC#N)CCC#N)cc3)N=C2c2cc([N+](=O)[O-])ccc2Cl)cc1 |  | > 100 µM |  |  | > 100 µM |  |  | > 100 µM |  | > 100 µM |  | > 100 µM | > 100 µM |  | > 100 µM | 
15 | COc1ccccc1CNC(=O)[C@H](Cc1ccc(O)cn1)NC(C)=O |  | > 100 µM | > 100 µM |  | > 100 µM | > 100 µM |  | > 100 µM | > 100 µM | > 100 µM |  | > 100 µM | > 100 µM |  | > 100 µM | > 100 µM
16 | CC(CCCOC(c1ccccc1)(c1ccccc1)c1ccccc1)OC(=O)Nc1ccccc1 (configuration not stated) |  | 21.7 µM |  |  | 25.9 µM | 23.9 µM |  | 27.4 µM |  | 23 µM |  | 31.4 µM | 28.1 µM |  | 26.9 µM | 44.7 µM
17 | O=c1ccn(C2OC(CN(O)CCC3C(CO)OC(n4ccc(=O)[nH]c4=O)C3O)C(O)C2O)c(=O)[nH]1 (configuration not stated) |  | > 100 µM | > 100 µM | > 100 µM | > 100 µM |  |  | > 100 µM | > 100 µM | > 100 µM |  | > 100 µM | > 100 µM |  | > 100 µM | 
18 | COC(=O)c1ccc(NCc2cc(O)ccc2O)cc1 |  | 32.9 µM | 19 µM |  | 31.5 µM | 2.06 µM |  | 23.4 µM | 36.9 µM | 35.7 µM |  | 8.58 µM | 30.9 µM |  | 27.6 µM | > 32.4 µM
19 | c1ccc(CC2(c3cc4ccccc4[nH]3)OCCO2)nc1 |  | > 100 µM | > 100 µM | > 100 µM | > 100 µM | > 100 µM |  | > 100 µM | > 100 µM | > 100 µM |  | > 100 µM | > 100 µM |  | > 100 µM | 
20 | COc1ccc(CCc2nccn2C)cc1OC |  | > 100 µM | > 100 µM |  | > 100 µM |  |  | > 100 µM | > 100 µM | > 100 µM |  | > 100 µM | > 100 µM |  | > 100 µM | > 100 µM
21 | CCOC(=O)C(=O)C(CCC(=O)c1ccc2ccccc2c1O)C(=O)OCC (configuration not stated) |  | > 100 µM | > 100 µM | > 100 µM | > 100 µM | > 100 µM |  | > 100 µM | > 100 µM | > 100 µM |  | > 100 µM |  |  | > 100 µM | > 100 µM
